{"source": "patent US20040101888A1", "about": "“Vector system used in screening active substances” (Max-Delbruck-Centrum Fur Molekulare Medizin, priority 2001, published 2004)", "test_system": "TCRS containing NIH-3T3 fibroblasts cells", "assay": "Detection of cellular translational control activities by TCRS reporter in drug-treated cells", "format": "cell-based", "conditions": "TCRS containing NIH-3T3 fibroblasts treated with drug", "source_text": "TCRS functions in cell lines. To examine the applicability of the TCRS in vertebrate cells we introduced the improved TCRS-vector into fibroblasts by transient transfection. […] Importantly, removal of the regulatory uORF by […] point mutation of its translation initiation site results in loss of translational controlled SR protein expression. Accordingly, the TCRS can be used to screen for drugs or to monitor pharmacological effects in tissue culture.\nTo examine the potential of the TCRS for detection of changes in translation control activities by external supplied drugs, we treated the TCRS containing NIH-3T3 fibroblasts cells with aminopurine and rapamycin, respectively.\nTreatment with translational active drugs, such as rapamycin or aminopurine, result in differential activation of distinct translation control pathways, causing a shift in reporter protein expression. Shift in reporter expression was also observed with co-transfected expression vectors encoding eucaryotic translation initiation factors eIF2or eIF4E, or mutants thereof. Reporter protein expression shifts were dependent on an intact uORF."}
{"substance": "aminopurine", "values": [{"measurement": "changes of the reporter peptide levels (PR and SR reporter protein expression from TCRS)", "result": "Differential changes of the peptide levels were observed"}]}
